The values below come from paper PMC6009985, “Structure–activity relationship investigation of benzamide and picolinamide derivatives containing dimethylamine side chain as acetylcholinesterase inhibitors” (Journal of Enzyme Inhibition and Medicinal Chemistry, 2017).

For one series, the target named is BChE (Homo sapiens, UniProt P06276). In words: biochemical. The settings on record: Ellman method, 30 °C, 25 min, pH 8.0; mean ± SD. On the procedure: (§1) AChE/BChE activity assays were carried out by Ellman method with slight modification. Each compound was dissolved in Tween 80 and diluted with water to various concentrations immediately before use. The assay solution which contained 40 μL AChE/BChE, 100 μL acetylthiocholine iodide/S-butyrylthiocholine iodide, 2.76 ml Na2HPO4/NaH2PO4 buffer (pH 8.0, 0.1 M), and 100 μL tested compound solution with different concentrations were incubated at 30 °C for 25 min. Then, the reaction was terminated with 100 μL 20% sodium dodecylsulphate (SDS), then 100 μL 10 mM […] (DTNB) as chromogenic agent was added into the mixture. […] The IC50 values were calculated by Bliss method and expressed as Mean ± SD of the replicates.
For orientation: Ellman's reagent forms a yellow product with free thiols.

Series [1] has as its target T1, AChE (Homo sapiens, UniProt P22303). In words: biochemical. The settings on record: for IC50: Ellman method, 30 °C, 25 min, pH 8.0, mean ± SD; for Selectivity for AChE, IC50 (BChE)/IC50 (AChE): ratio IC50 (BChE)/IC50 (AChE). How it is done:
as §1

A short description of series [2]: Octanol/buffer partition coefficient by shake flask method. The class given is physicochemical. The note with it: octanol/buffer (PBS) pH 7.4, shake-flask, 37 °C, HPLC; for logP: octanol/phosphate buffer solution (PBS). On the procedure:
The aqueous phase was replaced by phosphate buffer solution (PBS, pH = 7.4). The assay mixture containing tested compounds was shaken at 37 °C over night and then centrifuged at 2000 rpm for 20 min, followed by the analysis with HPLC. […] Experiments were conducted in triplicate and log p values were calculated.

The target of series [3] is T1, AChE. Briefly: Kinetic study of AChE inhibition (Lineweaver-Burk). The class given is biochemical. On the procedure: Kinetic characterisation of AChE/BChE was performed by a modified method previous reported. Compound 7a was pre-incubated with the enzyme at 30 °C, then 100 µL acetylthiocholine iodide including five concentrations was added into the assay mixture and kinetic characterisation was conducted spectrometrically at 412 nm. Additionally, the parallel control experiment was made without compound 7a in the mixture.
Compound 7a was selected for kinetic studies. The linear Lineweaver–Burk equation of the Michaelis–Menten was applied to evaluate the inhibition profile. The analysis of the steady-state inhibition data of compound 7a was shown in Supplement data: Table 2.

Chain of BChE (P06276 29-602): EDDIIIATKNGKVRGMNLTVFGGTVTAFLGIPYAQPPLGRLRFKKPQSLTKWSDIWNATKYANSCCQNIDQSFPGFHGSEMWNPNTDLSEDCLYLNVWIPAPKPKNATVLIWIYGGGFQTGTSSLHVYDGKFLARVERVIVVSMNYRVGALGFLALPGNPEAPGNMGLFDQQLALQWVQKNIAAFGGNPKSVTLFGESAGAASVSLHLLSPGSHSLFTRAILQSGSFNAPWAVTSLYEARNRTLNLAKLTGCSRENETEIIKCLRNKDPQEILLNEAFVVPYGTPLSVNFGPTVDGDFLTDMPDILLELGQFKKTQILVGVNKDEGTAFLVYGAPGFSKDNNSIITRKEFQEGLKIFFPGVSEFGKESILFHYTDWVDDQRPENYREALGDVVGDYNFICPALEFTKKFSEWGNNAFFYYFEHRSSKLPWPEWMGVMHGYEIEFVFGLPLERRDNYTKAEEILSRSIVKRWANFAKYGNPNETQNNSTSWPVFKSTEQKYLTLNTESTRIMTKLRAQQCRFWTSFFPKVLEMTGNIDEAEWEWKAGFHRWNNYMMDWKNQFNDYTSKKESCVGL
T1 sequence (P22303 32-614): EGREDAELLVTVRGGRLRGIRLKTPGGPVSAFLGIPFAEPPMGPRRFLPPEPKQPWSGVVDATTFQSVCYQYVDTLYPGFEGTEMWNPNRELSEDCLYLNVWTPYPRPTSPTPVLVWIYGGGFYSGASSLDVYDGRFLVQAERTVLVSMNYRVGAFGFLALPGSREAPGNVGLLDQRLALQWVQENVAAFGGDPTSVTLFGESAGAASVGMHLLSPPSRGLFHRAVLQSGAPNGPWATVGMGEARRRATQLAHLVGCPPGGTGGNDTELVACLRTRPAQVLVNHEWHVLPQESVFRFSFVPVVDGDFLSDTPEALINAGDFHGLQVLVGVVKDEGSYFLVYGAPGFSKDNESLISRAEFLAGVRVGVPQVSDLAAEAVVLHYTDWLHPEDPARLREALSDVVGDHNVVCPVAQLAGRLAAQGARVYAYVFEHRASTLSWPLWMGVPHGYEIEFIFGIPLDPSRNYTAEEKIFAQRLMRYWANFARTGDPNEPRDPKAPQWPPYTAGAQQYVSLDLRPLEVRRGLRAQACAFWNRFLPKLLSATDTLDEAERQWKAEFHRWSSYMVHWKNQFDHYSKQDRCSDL

In the case of `CN(C)CCOc1ccc(NC(=O)c2ccccc2)cc1` [Compound 4a], on BChE, half-maximal inhibition (IC50) was put at 143 ± 5.56 µM. Besides, on AChE [1], the IC50 – broadly, the concentration that inhibits the measured activity by half – stood at 18.2 ± 1.16 µM and the “Selectivity for AChE, IC50 (BChE)/IC50 (AChE)” value (“Selectivity for AChE, IC50” for short) worked out at 7.84. Moreover, in series [2], the Log p amounted to 1.12.

`CN(C)CCOc1cccc(NC(=O)c2ccccc2)c1` [Compound 4b] had an IC50 against BChE of 20.9 ± 1.61 µM. Also, at AChE [1], the IC50 was 75.8 ± 4.13 µM and the “Selectivity for AChE, IC50” value worked out at 0.276. Besides, the logP – broadly, a log measure of how a compound divides between an organic and an aqueous phase – in series [2] turned out to be 1.18.

`CN(C)CCOc1ccccc1NC(=O)c1ccccc1` [Compound 4c] displayed an IC50 on BChE of 18 ± 1 µM. In addition, on AChE [1], the IC50 is over 500 µM and the “Selectivity for AChE, IC50” value was under 0.0359. The compound further returned a logP in series [2] of 1.23.

As for `CN(C)CCOc1ccc(NC(=O)c2ccncc2)cc1` [Compound 7a], the results for the IC50 on BChE and against AChE [1] were 247 ± 7.54 µM and 2.49 ± 0.19 µM, respectively. On AChE [1], the “Selectivity for AChE, IC50” value came out at 99.4. The compound further returned a logP in series [2] of 1.26. For the same compound, the Vmax was 0.017 ΔAmin-1 on AChE [3] (AChE, 0.85 µM compound 7a); 0.014 ΔAmin-1 at AChE [3] (AChE, 1.70 µM compound 7a); 0.012 ΔAmin-1 at AChE [3] (AChE, 3.41 µM compound 7a). Further, the “non-competitive constant (Ki')” value on AChE [3] (AChE, Lineweaver-Burk analysis) came out at 3.28 µM. For the same compound, at AChE [3] (AChE, Lineweaver-Burk analysis, read-out: competitive inhibition constant (Ki)), the Ki (as a rule, the equilibrium dissociation constant of an inhibitor or competing ligand from its target) amounted to 4.69 µM. The “type of inhibition against AChE” value at AChE [3] (Lineweaver-Burk analysis) was “mixed-type inhibition”.

Turning to `CN(C)CCOc1cccc(NC(=O)c2ccncc2)c1` [Compound 7b], the IC50 at BChE stood at 48.6 ± 2.23 µM; on AChE [1], 38.4 ± 2.19 µM. The “Selectivity for AChE, IC50” value on AChE [1] came out at 1.26. Further, the logP in series [2] was determined as 1.31.

Consider `CN(C)CCOc1ccccc1NC(=O)c1ccncc1` [Compound 7c], for which the IC50 is 44.6 ± 1.16 µM against BChE and over 500 µM against AChE [1]. The “Selectivity for AChE, IC50” value at AChE [1] is recorded as under 0.0892. In series [2], this compound yielded a logP of 1.37.

Consider `CN(C)CCOc1ccc(NC(=O)c2cccnc2)cc1` [Compound 7d], for which the midpoint of inhibition against BChE, the IC50, lay at 246.5 ± 1.85 µM. At AChE [1], half-maximal inhibition (IC50) required 5.76 ± 0.41 µM and the “Selectivity for AChE, IC50” value is given as 42.80. The logP in series [2] amounted to 1.33.

`CN(C)CCOc1cccc(NC(=O)c2cccnc2)c1` [Compound 7e] gave an IC50 against BChE of 22.1 ± 1.01 µM. For the same compound, at AChE [1], inhibition was half-maximal at 13.2 ± 1.73 µM (IC50) and the “Selectivity for AChE, IC50” value worked out at 1.67. The compound further registered a log partition coefficient (logP) in series [2] of 1.37.

On to `CN(C)CCOc1ccccc1NC(=O)c1cccnc1` [Compound 7f], for which the IC50 against BChE is 33.4 ± 1.37 µM; against AChE [1] it was 75.8 ± 0.84 µM. For the same compound, the “Selectivity for AChE, IC50” value at AChE [1] turned out to be 0.441. The compound further registered a logP in series [2] of 1.42.

On BChE, `CN(C)CCOc1ccc(NC(=O)c2ccccn2)cc1` [Compound 7g] showed an IC50 of 114 ± 7.73 µM. Also, at AChE [1], the IC50 is 4.68 ± 0.3 µM and the “Selectivity for AChE, IC50” value was 24.4. Also, the logP in series [2] was found to be 1.14.

On to `CN(C)CCOc1cccc(NC(=O)c2ccccn2)c1` [Compound 7h], for which, on BChE, the midpoint of inhibition, the IC50, lay at 35.9 ± 0.94 µM. Further, on AChE [1], the IC50 amounted to 73 ± 3.03 µM and the “Selectivity for AChE, IC50” value is 0.492. The logP in series [2] was found to be 1.37.

For `CN(C)CCOc1ccccc1NC(=O)c1ccccn1` [Compound 7i], the IC50 at BChE stood at 27.4 ± 2.31 µM. Besides, at AChE [1], the concentration for half-maximal inhibition (IC50) is over 500 µM and the “Selectivity for AChE, IC50” value is under 0.0549. In addition, in series [2], the logP came to 1.18.
